Test results published in patent US6703410B1, “Crystal forms of 3-(2,4-dichlorobenzyl)-2-methyl-n-(pentylsulfonyl)-3h-benzimidazole-5-carboxamide” (Fujisawa Pharmaceutical Co., Ltd., priority 1998, dated 2004).

Key:
[1] = Relative crystallographic stability of the crystal forms; format: physicochemical; conditions: comparison of crystal forms A, B and C
[2] = Transition of crystal form B into crystal form A in a heated acetone/water slurry, followed by IR spectrum; format: physicochemical; conditions: suspended in acetone (51.2 g) and water (17.1 g), stirred while heating at 40° C.
Method: Crystal form B of 3-(2,4-dichlorobenzyl)-2-methyl-N-(pentylsulfonyl)-3H-benzimidazole-5-carboxamide (5.0 g) was suspended in a mixed solvent consisting of acetone (51.2 g) and water (17.1 g), and the resulting slurry was stirred while heating at 40° C. About 4 hours later, crystals in the slurry completely transitioned into those with the IR spectrum that agreed with the spectrum of crystal form A of 3-(2,4-dichlorobenzyl)-2-methyl-N-(pentylsulfonyl)-3H-benzimidazole-5-carboxamide.

time until crystals in the slurry completely transitioned into crystal form A [2]	SMILES	crystallographic stability relative to the other crystal forms ([1]; listed as crystal form A)	crystallographic stability relative to the other crystal forms ([1]; listed as crystal form B)
	CCCCCS(=O)(=O)NC(=O)c1ccc2nc(C)n(Cc3ccc(Cl)cc3Cl)c2c1 [Crystal form A, 3-(2,4-dichlorobenzyl)-2-methyl-N-(pentylsulfonyl)-3H-benzimidazole-5-carboxamide]	crystallographically more stable than crystal form B and C	
About 4 hours	CCCCCS(=O)(=O)NC(=O)c1ccc2nc(C)n(Cc3ccc(Cl)cc3Cl)c2c1 [Crystal form B, 3-(2,4-dichlorobenzyl)-2-methyl-N-(pentylsulfonyl)-3H-benzimidazole-5-carboxamide]		not as crystallographically stable as crystal form A
